According to US11981658B2, “Substituted aminopyridine compounds as EGFR inhibitors” (YUHAN CORPORATION, priority 2021, dated 2024):
Where two headings read alike, the source gives them in different places.

Assays:
[1] = molecular target: EGFR Del19/T790M/C797S (Homo sapiens, UniProt P00533, C797S/DEL746-750/T790M); test: Biochemical EGFR kinase inhibition assay (Lance Ultra TR-FRET), triple mutant del19/T790M/C797S
Procedure: (§1) Biochemical EGFR kinase assays were conducted using Lance Ultra time-resolved fluorescence resonance energy transfer (TR-FRET) technology from Perkin-Elmer. Compounds of the invention were initially diluted to 20 mM in 100% DMSO for storage and made into kinase buffer solution to create a compound concentration ranging from 0.003 μM and 10 μM.
(§2) Each kinase reactions were incubated at room temperature for 1 hour and then stopped by the addition of 4 μL of stop solution (10 mM EDTA). The specific Europium-labeled-anti-phosphopeptide antibody (PerkinElmer, AD0069) diluted in LANCE detection buffer was then added to a final concentration of 2 nM. After 60 minutes incubation at room temperature the LANCE signal was measured on an EnVision Multilabel Reader (Perkin-Elmer). Excitation wavelength was set at 320 nm and emission monitored at 615 nm (donor) and 665 nm (acceptor). The IC50 values were determined using GraphPad prism software (GraphPad Software, Inc., San Diego, CA, USA).

[2] = molecular target: EGFR L858R/T790M/C797S (Homo sapiens, UniProt P00533, C797S/L858R/T790M); test: Biochemical EGFR kinase inhibition assay (Lance Ultra TR-FRET), triple mutant L858R/T790M/C797S
EGFR L858R/T790M/C797S, sequence (P00533 25-1210 T790M/C797S/L858R): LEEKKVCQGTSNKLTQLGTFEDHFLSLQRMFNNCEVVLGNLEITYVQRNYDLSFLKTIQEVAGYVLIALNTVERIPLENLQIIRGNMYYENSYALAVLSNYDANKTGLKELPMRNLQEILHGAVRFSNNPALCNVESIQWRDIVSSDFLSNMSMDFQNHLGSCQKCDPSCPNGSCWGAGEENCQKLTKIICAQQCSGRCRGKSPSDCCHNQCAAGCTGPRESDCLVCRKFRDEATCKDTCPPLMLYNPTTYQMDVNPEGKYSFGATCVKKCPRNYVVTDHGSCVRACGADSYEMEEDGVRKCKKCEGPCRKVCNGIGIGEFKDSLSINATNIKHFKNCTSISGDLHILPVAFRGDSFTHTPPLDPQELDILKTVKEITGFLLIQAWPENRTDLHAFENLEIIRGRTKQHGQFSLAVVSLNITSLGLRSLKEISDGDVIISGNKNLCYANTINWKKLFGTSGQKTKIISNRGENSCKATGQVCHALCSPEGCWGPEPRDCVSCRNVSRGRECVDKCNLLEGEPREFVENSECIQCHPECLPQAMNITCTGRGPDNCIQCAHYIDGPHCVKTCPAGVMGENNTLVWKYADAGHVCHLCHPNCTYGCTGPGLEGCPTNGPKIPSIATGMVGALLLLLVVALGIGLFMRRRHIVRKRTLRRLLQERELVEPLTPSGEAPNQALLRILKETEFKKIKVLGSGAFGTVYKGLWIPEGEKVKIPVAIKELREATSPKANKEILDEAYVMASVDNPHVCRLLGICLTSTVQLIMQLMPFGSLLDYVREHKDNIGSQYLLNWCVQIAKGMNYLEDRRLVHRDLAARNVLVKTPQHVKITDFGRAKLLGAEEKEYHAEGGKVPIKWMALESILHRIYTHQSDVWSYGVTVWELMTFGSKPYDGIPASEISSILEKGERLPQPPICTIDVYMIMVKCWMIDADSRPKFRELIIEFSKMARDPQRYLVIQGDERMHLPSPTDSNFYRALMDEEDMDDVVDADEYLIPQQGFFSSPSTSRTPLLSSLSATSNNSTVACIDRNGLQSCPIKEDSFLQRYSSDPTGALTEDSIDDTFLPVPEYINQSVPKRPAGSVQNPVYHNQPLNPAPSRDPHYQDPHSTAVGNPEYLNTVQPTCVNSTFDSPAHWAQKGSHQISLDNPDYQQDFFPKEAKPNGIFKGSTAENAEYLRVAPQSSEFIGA
Procedure: as §1, §2

[3] = molecular target: EGFR Del19/C797S (Homo sapiens, UniProt P00533, C797S/DEL746-750); test: Biochemical EGFR kinase inhibition assay (Lance Ultra TR-FRET), double mutant del19/C797S
EGFR Del19/C797S, sequence (P00533 with tags, fused parts or gaps DEL746-750/C797S): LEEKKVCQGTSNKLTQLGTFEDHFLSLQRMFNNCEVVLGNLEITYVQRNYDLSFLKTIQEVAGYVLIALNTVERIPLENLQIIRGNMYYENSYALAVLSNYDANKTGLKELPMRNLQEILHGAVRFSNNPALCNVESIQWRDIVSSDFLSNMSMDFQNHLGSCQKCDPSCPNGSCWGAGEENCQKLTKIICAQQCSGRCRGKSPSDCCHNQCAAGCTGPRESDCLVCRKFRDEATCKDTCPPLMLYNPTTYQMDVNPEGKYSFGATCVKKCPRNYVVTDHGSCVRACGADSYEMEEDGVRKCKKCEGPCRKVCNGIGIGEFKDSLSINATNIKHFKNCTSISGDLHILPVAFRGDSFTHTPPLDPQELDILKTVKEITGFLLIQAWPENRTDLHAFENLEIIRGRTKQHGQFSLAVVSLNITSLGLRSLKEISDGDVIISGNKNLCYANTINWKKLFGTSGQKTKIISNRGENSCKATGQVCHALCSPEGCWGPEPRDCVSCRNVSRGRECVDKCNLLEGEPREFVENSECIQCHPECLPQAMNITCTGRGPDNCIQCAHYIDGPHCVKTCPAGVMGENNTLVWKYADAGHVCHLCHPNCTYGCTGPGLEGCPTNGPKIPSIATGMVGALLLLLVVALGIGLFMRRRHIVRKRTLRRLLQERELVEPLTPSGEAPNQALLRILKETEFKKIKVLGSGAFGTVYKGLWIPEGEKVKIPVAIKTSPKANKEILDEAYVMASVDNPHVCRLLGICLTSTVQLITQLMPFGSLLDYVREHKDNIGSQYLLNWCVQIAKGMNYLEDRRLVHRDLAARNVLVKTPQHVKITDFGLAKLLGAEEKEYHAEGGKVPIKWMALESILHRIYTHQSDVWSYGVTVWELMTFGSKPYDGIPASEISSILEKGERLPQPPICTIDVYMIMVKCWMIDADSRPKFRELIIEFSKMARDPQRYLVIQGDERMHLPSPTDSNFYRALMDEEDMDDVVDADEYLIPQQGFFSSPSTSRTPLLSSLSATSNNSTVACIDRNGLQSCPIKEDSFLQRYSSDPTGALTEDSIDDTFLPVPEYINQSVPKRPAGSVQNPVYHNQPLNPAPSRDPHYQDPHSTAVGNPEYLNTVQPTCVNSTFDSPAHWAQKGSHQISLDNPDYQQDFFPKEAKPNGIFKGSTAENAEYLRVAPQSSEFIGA
Procedure: as §1, §2

[4] = molecular target: EGFR L858R/C797S (Homo sapiens, UniProt P00533, C797S/L858R); test: Biochemical EGFR kinase inhibition assay (Lance Ultra TR-FRET), double mutant L858R/C797S
EGFR L858R/C797S, sequence (P00533 25-1210 C797S/L858R): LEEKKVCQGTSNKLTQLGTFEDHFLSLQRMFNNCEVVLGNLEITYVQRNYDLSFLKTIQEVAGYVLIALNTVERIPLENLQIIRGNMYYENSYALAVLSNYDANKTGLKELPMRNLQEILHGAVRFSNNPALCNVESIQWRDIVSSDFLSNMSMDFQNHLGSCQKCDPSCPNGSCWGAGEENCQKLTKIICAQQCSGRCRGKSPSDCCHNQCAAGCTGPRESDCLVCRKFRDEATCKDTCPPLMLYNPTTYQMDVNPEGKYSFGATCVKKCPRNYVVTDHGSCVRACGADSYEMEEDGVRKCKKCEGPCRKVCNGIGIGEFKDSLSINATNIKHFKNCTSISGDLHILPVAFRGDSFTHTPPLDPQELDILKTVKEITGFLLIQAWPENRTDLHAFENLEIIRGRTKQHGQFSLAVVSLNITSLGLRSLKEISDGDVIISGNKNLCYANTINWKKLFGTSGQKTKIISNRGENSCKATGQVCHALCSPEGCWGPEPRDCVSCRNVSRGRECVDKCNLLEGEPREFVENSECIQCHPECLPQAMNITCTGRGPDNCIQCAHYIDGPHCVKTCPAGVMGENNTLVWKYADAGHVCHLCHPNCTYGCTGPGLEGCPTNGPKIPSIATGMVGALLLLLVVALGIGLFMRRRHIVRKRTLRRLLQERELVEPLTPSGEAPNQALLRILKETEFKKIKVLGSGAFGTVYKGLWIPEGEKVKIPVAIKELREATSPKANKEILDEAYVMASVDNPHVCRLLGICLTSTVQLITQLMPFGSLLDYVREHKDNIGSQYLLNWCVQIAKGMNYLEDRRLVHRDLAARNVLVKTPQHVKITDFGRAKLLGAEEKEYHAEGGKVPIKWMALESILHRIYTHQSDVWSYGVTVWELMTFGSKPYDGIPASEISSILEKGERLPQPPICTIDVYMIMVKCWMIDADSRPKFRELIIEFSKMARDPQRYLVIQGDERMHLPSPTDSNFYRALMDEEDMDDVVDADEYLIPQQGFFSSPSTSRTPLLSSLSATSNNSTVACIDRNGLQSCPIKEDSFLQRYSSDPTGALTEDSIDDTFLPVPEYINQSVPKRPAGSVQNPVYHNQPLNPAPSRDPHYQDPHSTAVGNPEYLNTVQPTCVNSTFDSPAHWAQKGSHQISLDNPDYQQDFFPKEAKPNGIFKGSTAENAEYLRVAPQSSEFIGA
Procedure: as §1, §2

[5] = molecular target: EGFR wildtype (WT) (Homo sapiens, UniProt P00533); test: Biochemical EGFR kinase inhibition assay (Lance Ultra TR-FRET), wildtype
EGFR wildtype (WT), sequence (P00533 25-1210): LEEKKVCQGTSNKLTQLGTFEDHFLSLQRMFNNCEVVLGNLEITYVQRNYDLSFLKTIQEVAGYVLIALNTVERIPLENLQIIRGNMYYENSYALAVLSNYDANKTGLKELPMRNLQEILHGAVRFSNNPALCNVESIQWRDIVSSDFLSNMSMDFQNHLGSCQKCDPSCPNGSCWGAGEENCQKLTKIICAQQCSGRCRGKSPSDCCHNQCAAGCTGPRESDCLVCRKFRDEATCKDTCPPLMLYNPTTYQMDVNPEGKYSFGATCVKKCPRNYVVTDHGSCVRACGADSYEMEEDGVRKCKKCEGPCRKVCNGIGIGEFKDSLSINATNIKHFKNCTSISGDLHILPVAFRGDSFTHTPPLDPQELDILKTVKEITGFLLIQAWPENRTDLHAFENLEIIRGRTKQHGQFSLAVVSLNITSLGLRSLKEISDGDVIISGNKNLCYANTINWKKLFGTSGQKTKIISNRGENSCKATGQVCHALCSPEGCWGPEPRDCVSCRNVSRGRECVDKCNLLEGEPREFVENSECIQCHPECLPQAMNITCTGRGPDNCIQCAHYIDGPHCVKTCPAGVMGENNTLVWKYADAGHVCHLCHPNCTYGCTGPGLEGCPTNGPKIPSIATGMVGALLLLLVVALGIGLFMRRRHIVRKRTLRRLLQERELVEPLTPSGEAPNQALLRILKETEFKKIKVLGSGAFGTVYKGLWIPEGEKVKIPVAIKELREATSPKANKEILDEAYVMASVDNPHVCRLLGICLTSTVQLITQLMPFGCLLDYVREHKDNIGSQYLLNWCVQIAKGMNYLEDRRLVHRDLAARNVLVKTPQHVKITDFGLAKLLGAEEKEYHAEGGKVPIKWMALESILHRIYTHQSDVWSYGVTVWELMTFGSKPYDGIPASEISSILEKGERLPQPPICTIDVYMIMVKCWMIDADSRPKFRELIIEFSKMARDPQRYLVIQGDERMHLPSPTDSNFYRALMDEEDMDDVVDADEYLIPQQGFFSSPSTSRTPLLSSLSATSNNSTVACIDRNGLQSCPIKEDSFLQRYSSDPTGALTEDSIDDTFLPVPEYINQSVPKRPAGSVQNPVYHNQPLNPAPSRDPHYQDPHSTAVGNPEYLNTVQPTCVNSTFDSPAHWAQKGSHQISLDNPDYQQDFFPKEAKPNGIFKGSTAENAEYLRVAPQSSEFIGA
Procedure: as §1, §2

[6] = ATP at Km, read-out: IC50 Del19/T790M/C797S (nM), Km ATP
[7] = IC50 Del19/T790M/C797S (nM), 100 μM ATP
[8] = ATP at Km, read-out: IC50 L858R/T790M/C797S (nM), Km ATP
[9] = IC50 L858R/T790M/C797S (nM), 100 μM ATP
[10] = ATP at Km, read-out: IC50 Del19/C797S (nM), Km ATP
[11] = IC50 Del19/C797S (nM), 100 μM ATP
[12] = ATP at Km, read-out: IC50 L858R/C797S (nM), Km ATP
[13] = IC50 L858R/C797S (nM), 100 μM ATP
[14] = ATP at Km, read-out: IC50 WT (nM), Km ATP
[15] = Km ATP, read-out: IC50 Del19/T790M/C797S (nM) Km ATP
[16] = Km ATP, read-out: IC50 L858R/T790M/C797S (nM) Km ATP
[17] = Km ATP, read-out: IC50 Del19/C797S (nM) Km ATP
[18] = Km ATP, read-out: IC50 WT (nM) Km ATP

Row | SMILES | IC50 [1, 6] [nM] | IC50 [1, 7] [nM] | IC50 [2, 9] [nM] | IC50 [3, 10] [nM] | IC50 [3, 11] [nM] | IC50 [4, 12] [nM] | IC50 [4, 13] [nM] | IC50 [5, 14] [nM] | IC50 ([5]; IC50 WT (nM), 100 μM ATP) [nM] | further results
1 | CN(C)S(=O)(=O)n1cc(-c2nccc(Nc3cc(N4CCC(C)(CO)CC4)c(C#Cc4cnn(C(F)(F)F)c4)cn3)n2)cn1 [Example 273, 4-(4-((4-(4-(Hydroxymethyl)-4-methylpiperidin-1-yl)-5-((1-(trifluoromethyl)-1H-pyrazol-4-yl)ethynyl)pyridin-2-yl)amino)pyrimidin-2-yl)-N, N-dimethyl-1H-pyrazole-1-sulfonamide] | 5.6 | 2.9 | 1.5 | 35.8 | 97.4 | 16.6 | 198 | 46.1 | > 10000 | IC50 [2, 8]: 0.3 nM
2 | Cn1cc(C#Cc2cnc(Nc3ccnc(-c4cnn(S(=O)(=O)C5CC5)c4)n3)cc2N2CCC(NS(C)(=O)=O)CC2)cn1 [Example 63, N-(1-(2-((2-(1-(Cyclopropylsulfonyl)-1H-pyrazol-4-yl)pyrimidin-4-yl)amino)-5-((1-methyl-1H-pyrazol-4-yl)ethynyl)pyridin-4-yl)piperidin-4-yl)methanesulfonamide] | – | 1.2 | 2.4 | – | 23.1 | – | 83.4 | – | > 10000 | –
3 | CC1(CO)CCN(c2cc(Nc3ccnc(-c4cnn(S(=O)(=O)C5CC5)c4)n3)ncc2C#CC2CCOC2)CC1 (centres unmarked) [Example 197, (1-(2-((2-(1-(Cyclopropylsulfonyl)-1H-pyrazol-4-yl)pyrimidin-4-yl)amino)-5-((tetrahydrofuran-3-yl)ethynyl)pyridin-4-yl)-4-methylpiperidin-4-yl)methanol] | 0.3 | 0.3 | 0.3 | 0.6 | 0.8 | 0.8 | 8.9 | 5.6 | 1560 | IC50 [2, 8]: 0.1 nM
4 | CN1CCN(Cc2ccc(C#Cc3cnc(Nc4ccnc(-c5cnn(S(=O)(=O)C6CC6)c5)n4)cc3N3CCC4(CCO4)CC3)cc2)CC1 [Example 370, 2-(1-(Cyclopropylsulfonyl)-1H-pyrazol-4-yl)-N-(5-((4-((4-methylpiperazin-1-yl)methyl)phenyl)ethynyl)-4-(1-oxa-7-azaspiro[3.5]nonan-7-yl)pyridin-2-yl)pyrimidin-4-amine] | – | 0.3 | 0.8 | – | 0.9 | – | 5.1 | – | > 10000 | IC50 ([1]; Km ATP, read-out: IC50 Del19/T790M/C797S (nM), Km ATP): 0.3 nM; IC50 ([2]; Km ATP, read-out: IC50 L858R/T790M/C797S (nM), Km ATP): 0.1 nM; IC50 ([3]; Km ATP, read-out: IC50 Del19/C797S (nM), Km ATP): 0.9 nM; IC50 ([4]; Km ATP, read-out: IC50 L858R/C797S (nM), Km ATP): 1.4 nM; IC50 ([5]; Km ATP, read-out: IC50 WT (nM), Km ATP): 1.9 nM
5 | CC(C)Nc1cc(Nc2ccnc(-c3cnn(S(=O)(=O)C4CC4)c3)n2)ncc1C#Cc1cnn(CC(F)F)c1 [Example 23, N^2-(2-(1-(Cyclopropylsulfonyl)-1H-pyrazol-4-yl)pyrimidin-4-yl)-5-((1-(2,2-difluoroethyl)-1H-pyrazol-4-yl)ethynyl)-N^4-isopropylpyridine-2,4-diamine] | – | – | – | – | – | – | – | – | – | IC50 [1, 15]: 1.6 nM; IC50 [2, 16]: 7.1 nM; IC50 [3, 17]: 77.7 nM; IC50 ([4]; Km ATP, read-out: IC50 L858R/C797S (nM) Km ATP): 92.5 nM; IC50 [5, 18]: 907 nM
6 | Cn1cc(C#Cc2cnc(Nc3ccnc(-c4cnn(S(=O)(=O)C5CC5)c4)n3)cc2N2CCC(CCO)CC2)c(C(F)(F)F)n1 [Example 91, 2-(1-(2-((2-(1-(Cyclopropylsulfonyl)-1H-pyrazol-4-yl)pyrimidin-4-yl)amino)-5-((1-methyl-3-(trifluoromethyl)-1H-pyrazol-4-yl)ethynyl)pyridin-4-yl)piperidin-4-yl)ethan-1-ol] | – | 5.6 | 13.9 | – | 76.8 | – | 166 | – | > 10000 | –
7 | O=S(=O)(C1CC1)n1cc(-c2nccc(Nc3cc(N4CCC5(CCO5)CC4)c(C#Cc4cccnc4)cn3)n2)cn1 [Example 283, 2-(1-(Cyclopropylsulfonyl)-1H-pyrazol-4-yl)-N-(5-(pyridin-3-ylethynyl)-4-(1-oxa-7-azaspiro[3.5]nonan-7-yl)pyridin-2-yl)pyrimidin-4-amine] | 2 | 9.5 | 3 | 3.1 | 7.9 | 1.9 | 11.2 | 16.2 | > 10000 | –
8 | Cc1nc(C#Cc2cnc(Nc3ccnc(-c4cnn(S(=O)(=O)C5CC5)c4)n3)cc2NC(C)C)cs1 [Example 199, N^2-(2-(1-(Cyclopropylsulfonyl)-1H-pyrazol-4-yl)pyrimidin-4-yl)-N^4-isopropyl-5-((2-methylthiazol-4-yl)ethynyl)pyridine-2,4-diamine] | 5.7 | – | – | 82 | – | 414 | – | – | – | IC50 [2, 8]: 3.4 nM
9 | CC(C)Nc1cc(Nc2ccnc(-c3cnn(S(=O)(=O)C4CC4)c3)n2)ncc1C#CCCCCC(=O)N1CCOCC1 [Example 210, 7-(6-((2-(1-(Cyclopropylsulfonyl)-1H-pyrazol-4-yl)pyrimidin-4-yl)amino)-4-(isopropylamino)pyridin-3-yl)-1-morpholinohept-6-yn-1-one] | – | 3.4 | – | – | 143 | – | 157 | – | > 10000 | –
10 | O=S(=O)(C1CC1)n1cc(-c2nccc(Nc3cc(N4CCN(CCO)CC4)c(C#Cc4cnn(CCF)c4)cn3)n2)cn1 [Example 16, 2-(4-(2-((2-(1-(Cyclopropylsulfonyl)-1H-pyrazol-4-yl)pyrimidin-4-yl)amino)-5-((1-(2-fluoroethyl)-1H-pyrazol-4-yl)ethynyl)pyridin-4-yl)piperazin-1-yl)ethan-1-ol] | – | 3.3 | 10.1 | – | 165 | – | – | – | > 10000 | IC50 [1, 15]: 4.5 nM; IC50 [3, 17]: 68.6 nM; IC50 [5, 18]: 145 nM
11 | CC(C)Nc1cc(Nc2ccnc(-c3cnn(S(=O)(=O)C4CC4)c3)n2)ncc1C#CCCCNC(=O)N1CCOCC1 [Example 207, N-(5-(6-((2-(1-(Cyclopropylsulfonyl)-1H-pyrazol-4-yl)pyrimidin-4-yl)amino)-4-(isopropylamino)pyridin-3-yl)pent-4-yn-1-yl)morpholine-4-carboxamide] | 2.1 | 2.9 | – | 29.1 | 76.4 | – | 120 | 56 | > 10000 | –
12 | COCCC#Cc1cnc(Nc2ccnc(-c3cnn(S(=O)(=O)C4CC4)c3)n2)cc1NC(C)C [Example 22, N^2-(2-(1-(Cyclopropylsulfonyl)-1H-pyrazol-4-yl)pyrimidin-4-yl)-N^4-isopropyl-5-(4-methoxybut-1-yn-1-yl)pyridine-2,4-diamine] | – | – | – | – | – | – | – | – | – | IC50 [1, 15]: 2.8 nM; IC50 [2, 16]: 5.4 nM; IC50 [3, 17]: 122 nM; IC50 [5, 18]: 630 nM
